Values of other authors as cited in paper PMC6915728 (Nature Communications, 2019).
Read-outs that look alike come from different tables or passages of the source. Ends that are not written are not given here.

System: bacterial species in which the gene showed activity
Details: cited from earlier work
[1] = Salmonella typhimurium, Escherichia coli, ref https://www.ncbi.nlm.nih.gov/pmc/articles/PMC3037666/, https://www.ncbi.nlm.nih.gov/pmc/articles/PMC3837802/pdf/zam7770.pdf
[2] = Salmonella typhimurium, Escherichia coli, ref https://www.ncbi.nlm.nih.gov/pmc/articles/PMC3037666/, https://www.ncbi.nlm.nih.gov/pmc/articles/PMC4808223/
[3] = Salmonella typhimurium, ref https://www.ncbi.nlm.nih.gov/pmc/articles/PMC3037666/
[4] = Klebsiella pneumoniae, ref http://www.ncbi.nlm.nih.gov/pmc/articles/PMC2798511/
[5] = Staphylococcus aureus, SalmonellaTyphimurium, ref http://ac.els-cdn.com/S0022202X15369608/1-s2.0-S0022202X15369608-main.pdf?_tid=6fa51c80-693e-11e6-b18c-00000aacb362&acdnat=1471962936_8118358d97a056d7d78b5e8b4ca8d03b, https://www.sciencedirect.com/science/article/pii/S0928824401002917
[6] = Staphylococcus aureus, ref https://www.ncbi.nlm.nih.gov/pubmed/14707093
[7] = Salmonella enterica serovar Typhimurium, ref http://www.microbiologyresearch.org/docserver/fulltext/micro/154/2/666.pdf?expires=1487718158&id=id&accname=guest&checksum=D8B884D02A8B2A8619216A48E0826377
[8] = Neisseria meningitidis, Neisseria gonorrhoeae, ref http://www.ncbi.nlm.nih.gov/pmc/articles/PMC1196002/
[9] = Neisseria meningitidis, ref https://www.ncbi.nlm.nih.gov/pmc/articles/PMC1196002/
[10] = Klebsiella pneumoniae, ref http://iai.asm.org/content/72/12/7107.full.pdf+html
[11] = Staphylococcus aureus, Staphylococcus xylosus, ref http://www.jbc.org/content/274/13/8405.full.pdf
[12] = Staphylococcus aureus, ref http://onlinelibrary.wiley.com/doi/10.1111/j.1365-2958.2007.05986.x/epdf
[13] = Staphylococcus epidermidis, ref http://jb.asm.org/content/178/2/531.full.pdf, https://www.ncbi.nlm.nih.gov/pmc/articles/PMC4239024/

## magainin 2
[1]
  Gene that modulates bacterial susceptibility to the AMP: cpxA (CpxA/CpxR)
[2]
  Gene that modulates bacterial susceptibility to the AMP: amiA, amiC
[3]
  Gene that modulates bacterial susceptibility to the AMP: tatA

## mellitin
[2]
  Gene that modulates bacterial susceptibility to the AMP: amiA, amiC
[3]
  Gene that modulates bacterial susceptibility to the AMP: tatA

## protegrin
Salmonella typhimurium, Salmonella typhi, ref http://www.sciencedirect.com/science/article/pii/S009286740081750X
  Gene that modulates bacterial susceptibility to the AMP: pagP

## human beta-defensin 2
[4]
  Gene that modulates bacterial susceptibility to the AMP: acrB
[5]
  Gene that modulates bacterial susceptibility to the AMP: hemB

## Human alpha-defensin-1
[6]
  Gene that modulates bacterial susceptibility to the AMP: sak

## Colistin
Acinetobacter baumannii, ref https://mbio.asm.org/content/4/3/e00021-13
  Gene that modulates bacterial susceptibility to the AMP: pmrB
Escherichia coli, Klebsiella pneumoniae, Pseudomonas aeruginosa, Kluyvera ascorbata, ref http://www.ncbi.nlm.nih.gov/pubmed/26603172, http://ac.els-cdn.com/S1473309915005332/1-s2.0-S1473309915005332-main.pdf?_tid=16a7f944-6944-11e6-8a9d-00000aab0f02&acdnat=1471965364_7f481026d1a49114e23adef4a6b4d1a9, https://www.ncbi.nlm.nih.gov/pmc/articles/PMC5119035/
  Gene that modulates bacterial susceptibility to the AMP: mcr1
Pseudomonas aeruginosa, ref https://onlinelibrary.wiley.com/doi/epdf/10.1111/j.1365-2958.2008.06152.x
  Gene that modulates bacterial susceptibility to the AMP: mexA, mexB

## GIGKFLHSAKKFGKAFVGEIMNS [Magainin 2]
Salmonella enterica serovar Typhimurium, ref http://onlinelibrary.wiley.com/doi/10.1111/j.1365-2958.2004.04107.x/full
  Gene that modulates bacterial susceptibility to the AMP: yqjA
Salmonella enterica serovar Typhimurium, ref http://www.jbc.org/content/279/37/38618.long, https://onlinelibrary.wiley.com/doi/epdf/10.1111/j.1365-2958.2005.04553.x
  Gene that modulates bacterial susceptibility to the AMP: slyA
Salmonella enterica serovar Typhimurium, ref http://www.jbc.org/content/279/37/38618.long
  Gene that modulates bacterial susceptibility to the AMP: ugtL

## CC[C@H](C)[C@H](NC(=O)CN)C(=O)NCC(=O)N[C@@H](C)C(=O)N[C@H](C(=O)N[C@@H](CC(C)C)C(=O)N[C@@H](CCCCN)C(=O)N[C@H](C(=O)N[C@@H](CC(C)C)C(=O)N[C@H](C(=O)N[C@H](C(=O)NCC(=O)N[C@@H](CC(C)C)C(=O)N1CCC[C@H]1C(=O)N[C@@H](C)C(=O)N[C@@H](CC(C)C)C(=O)N[C@H](C(=O)N[C@@H](CO)C(=O)N[C@@H](Cc1c[nH]c2ccccc12)C(=O)N[C@H](C(=O)N[C@@H](CCCCN)C(=O)N[C@@H](CCCNC(=N)N)C(=O)N[C@@H](CCCCN)C(=O)N[C@@H](CCCNC(=N)N)C(=O)N[C@@H](CCC(N)=O)C(=O)N[C@@H](CCC(N)=O)C(N)=O)[C@@H](C)CC)[C@@H](C)CC)[C@@H](C)O)[C@@H](C)O)C(C)C)C(C)C [melittin]
[7]
  Gene that modulates bacterial susceptibility to the AMP: yejA
[1]
  Gene that modulates bacterial susceptibility to the AMP: cpxA (CpxA/CpxR)

## human defensin (human beta-defensin)-1 (DHYNCVSSGGQCLYSACPIFTKIQGTCYRGKAKCCK; ends and bridges not checked; cysteine pairing not given here; UniProt P60022 33-68, looked up)
[7]
  Gene that modulates bacterial susceptibility to the AMP: yejA

## protegrin-1 (RGGRLCYCRRRFCVCVGR; ends and bridges not checked; cysteine pairing not given here; UniProt P32194 131-148, looked up)
[8]
  Gene that modulates bacterial susceptibility to the AMP: mtrC, mtrD, mtrE
[9]
  Gene that modulates bacterial susceptibility to the AMP: lptA
  Gene that modulates bacterial susceptibility to the AMP: pgtE

## beta-defensin-1 (DHYNCVSSGGQCLYSACPIFTKIQGTCYRGKAKCCK; ends and bridges not checked; cysteine pairing not given here; UniProt P60022 33-68, looked up)
  Gene that modulates bacterial susceptibility to the AMP: pla

## human beta-defensin-1 (DHYNCVSSGGQCLYSACPIFTKIQGTCYRGKAKCCK; ends and bridges not checked; cysteine pairing not given here; UniProt P60022 33-68, looked up)
Burkholderia cenocepacia, ref http://www.microbiologyresearch.org/docserver/fulltext/micro/155/9/2818.pdf?expires=1468919235&id=id&accname=guest&checksum=2CEA64BA8195145BE72C98BB20076628
  Gene that modulates bacterial susceptibility to the AMP: zmpB
[10]
  Gene that modulates bacterial susceptibility to the AMP: cps
Proteus mirabilis, ref http://www.ncbi.nlm.nih.gov/pmc/articles/PMC517467/pdf/0713-04.pdf
  Gene that modulates bacterial susceptibility to the AMP: zapA

## Human alfa-defensin1
[11]
  Gene that modulates bacterial susceptibility to the AMP: dltA (dlt operon)

## CRAMP
  Gene that modulates bacterial susceptibility to the AMP: pgtE

## colistin
Acinetobacter baumannii, ref http://aac.asm.org/content/54/12/4971.full.pdf+html
  Gene that modulates bacterial susceptibility to the AMP: lpxA
[5]
  Gene that modulates bacterial susceptibility to the AMP: hemB

## Magainin II
[11]
  Gene that modulates bacterial susceptibility to the AMP: dltA (dlt operon)

## Human beta-defensin3 (GIINTLQKYYCRVRGGRCAVLSCLPKEEQIGKCSTRGRKCCRRKK; ends and bridges not checked; cysteine pairing not given here; UniProt P81534 23-67, looked up)
[12]
  Gene that modulates bacterial susceptibility to the AMP: apsS

## Epidermin (IASKFICTPGCAKTGSFNSYCC; also: lantibiotic, thioether rings, places not given here; UniProt P08136 31-52, looked up)
[13]
  Gene that modulates bacterial susceptibility to the AMP: epiE, epiF, epiG

## dermcidin (SSLLEKGLDGAKKAVGGLGKLGKDAVEDLESVGKGAVHDVKDVLDSV; DCD-1; UniProt P81605 63-109, looked up)
[12]
  Gene that modulates bacterial susceptibility to the AMP: apsS

## human beta-defensin 3 (GIINTLQKYYCRVRGGRCAVLSCLPKEEQIGKCSTRGRKCCRRKK; ends and bridges not checked; cysteine pairing not given here; UniProt P81534 23-67, looked up)
[5]
  Gene that modulates bacterial susceptibility to the AMP: hemB

## human beta-defensin 1 (DHYNCVSSGGQCLYSACPIFTKIQGTCYRGKAKCCK; ends and bridges not checked; cysteine pairing not given here; UniProt P60022 33-68, looked up)
[4]
  Gene that modulates bacterial susceptibility to the AMP: acrB

## Human alfa-defensin3
[11]
  Gene that modulates bacterial susceptibility to the AMP: dltA (dlt operon)

## Human alpha-defensin-2 (CYCRIPACIAGERRYGTCIYQGRLWAFCC; ends and bridges not checked; cysteine pairing not given here; UniProt P59665 66-94, looked up)
[6]
  Gene that modulates bacterial susceptibility to the AMP: sak

## lactoferricin B
[5]
  Gene that modulates bacterial susceptibility to the AMP: hemB

## gallidermin (IASKFLCTPGCAKTGSFNSYCC; also: lantibiotic, thioether rings, places not given here; UniProt P21838 31-52, looked up)
[11]
  Gene that modulates bacterial susceptibility to the AMP: dltA (dlt operon)
[13]
  Gene that modulates bacterial susceptibility to the AMP: epiE, epiF, epiG

## human neutrophil peptide-1
[4]
  Gene that modulates bacterial susceptibility to the AMP: acrB
[2]
  Gene that modulates bacterial susceptibility to the AMP: amiA, amiC

## polymyxin E
Bordetella pertussis, ref http://www.ncbi.nlm.nih.gov/pmc/articles/PMC4136009/
  Gene that modulates bacterial susceptibility to the AMP: lgmA, IgmB, IgmC

## human beta-defensin-2
[7]
  Gene that modulates bacterial susceptibility to the AMP: yejA

## Nisin
Bacillus subtilis, gene psdA (yvcR), […]
  Gene that modulates bacterial susceptibility to the AMP: psdA (yvcR)
Bacillus subtilis, gene psdB (yvcS), […]
  Gene that modulates bacterial susceptibility to the AMP: psdB (yvcS)
Lactococcus lactis, genes nisE, nisF, nisG, […]
  Gene that modulates bacterial susceptibility to the AMP: nisE, nisF, nisG
Lactococcus lactis, genes ysaB, ysaC, […]
  Gene that modulates bacterial susceptibility to the AMP: ysaB, ysaC
Listeria monocytogenes, […]
  Gene that modulates bacterial susceptibility to the AMP: anrA (lmo2114)
Staphylococcus aureus, […]
  Gene that modulates bacterial susceptibility to the AMP: braA,braB

## bacitracin
Listeria monocytogenes, ref https://www.ncbi.nlm.nih.gov/pmc/articles/PMC2944581/
  Gene that modulates bacterial susceptibility to the AMP: anrA (lmo2114)
Staphylococcus aureus, ref https://www.ncbi.nlm.nih.gov/pmc/articles/PMC3718698/
  Gene that modulates bacterial susceptibility to the AMP: braA,braB

## nisin
[11]
  Gene that modulates bacterial susceptibility to the AMP: dltA (dlt operon)
[12]
  Gene that modulates bacterial susceptibility to the AMP: apsS

## Human neutrophil peptide-1
[10]
  Gene that modulates bacterial susceptibility to the AMP: cps

## lactoferrin
[10]
  Gene that modulates bacterial susceptibility to the AMP: cps

## LL-37 (LLGDFFRKSKEKIGKEFKRIVQRIKDFLRNLVPRTES; Antibacterial peptide LL-37; UniProt P49913 134-170, looked up)
[8]
  Gene that modulates bacterial susceptibility to the AMP: mtrC, mtrD, mtrE
[9]
  Gene that modulates bacterial susceptibility to the AMP: lptA
[5]
  Gene that modulates bacterial susceptibility to the AMP: hemB
Staphylococcus epidermidis, ref http://onlinelibrary.wiley.com/doi/10.1046/j.1462-5822.2004.00367.x/epdf
  Gene that modulates bacterial susceptibility to the AMP: icaA(ica operon)
